{"source": "patent US9631001B2", "about": "“Peptide antagonists of the vasopressin-2 receptor” (COMMISSARIAT A L'ENERGIE ATOMIQUE ET AUX ENERGIES …, priority 2012, dated 2017)", "key": {"CD1^pcy/pcy mice": {"test_system": "CD1^pcy/pcy mice", "experiment": "Cyst formation in pcy mice (kidney weight, cyst number)", "format": "in vivo, mouse", "settings": "0.1 μmol/kg/day i.p., 99 days", "protocol": "The toxin was dissolved in 0.9% NaCl at a concentration of 1 mg/ml. 10 week-old CD1^pcy/pcy mice were injected intraperitoneally with the toxin at a dose of 0.1 μmol toxin/kg of body weightday for 99 days. Then the mice were perfusion-fixed with 4% paraformaldehyde/1× phosphate-buffered saline, the kidneys and hearts were taken out and weighed. Then, the ratio of kidney weight or heart weightbody weight and kidney weightheart weight was calculated to evaluate an effect of the toxin on cyst formation. The kidneys were embedded in paraffin. Transverse kidney sections were stained with hematoxylin and eosin. Cyst number was determined using the program ImageJ and related to the size of the section thus arriving at the relative cyst number."}, "hV2-Rluc receptor": {"target": "T1, hV2-Rluc receptor (Homo sapiens, UniProt P30518)", "T1 construct": "expressed in transfected cells; host or cells: tsA cells (HEK293 derivative), transiently transfected", "T1 sequence (P30518 whole entry)": "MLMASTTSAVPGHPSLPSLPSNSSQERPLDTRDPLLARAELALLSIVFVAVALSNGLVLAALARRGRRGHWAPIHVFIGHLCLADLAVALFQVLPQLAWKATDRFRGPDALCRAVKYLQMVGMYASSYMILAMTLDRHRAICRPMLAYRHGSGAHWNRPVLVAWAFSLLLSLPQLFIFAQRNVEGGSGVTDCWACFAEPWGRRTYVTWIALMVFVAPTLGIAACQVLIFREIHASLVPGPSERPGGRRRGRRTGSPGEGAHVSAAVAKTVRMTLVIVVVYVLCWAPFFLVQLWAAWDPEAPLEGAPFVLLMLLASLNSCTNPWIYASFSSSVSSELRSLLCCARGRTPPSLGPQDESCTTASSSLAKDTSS", "experiment": "β-arrestin-1-YFP mobilization (BRET) to V2-Rluc in tsA cells", "format": "cell-based", "method": "2.5×10^6 tsA cells, a transformed human kidney (HEK293) cell line stably expressing an SV40 temperature sensitive T antigen (ECACC), transiently transfected with 150 ng of pRK5 expression plasmid for hV2Rluc ([sequence] #556104, BD BIOSCIENCE; Terrillon et al., Mol. Endocrinol., 2003, 17, 677-691) and with 1 μg of an expression plasmid for β-arrestin-1-YFP ((β-arrestin cloned into pEYFP-N1 (CLONTECH); Scott et al., J. Biol. Chem., 2002, 277, 3552-3559) were seeded in 6-well plates. 48 h after transfection, cells were washed with KREBS buffer containing 146 mM NaCl, 4.2 mM KCl, 0.5 mM MgCl2, 1 mM CaCl2, 10 mM HEPES pH 7.4, 1 mg/ml glucose and resuspended in 1 ml of this buffer. Bioluminescence Resonance Energy Transfer (BRET™) measurements between the V2-Rluc and β-arrestin-1-YFP were performed in 96-well plates with a final volume of 50 μl containing 30 μl of cell suspension (75,000 cells), 10 μl of KREBS buffer (control condition) or the mix of ligands containing either increasing concentrations of vasopressin (stimulated control condition) or in the presence of increasing concentrations of toxin (stimulated condition with inhibitor)."}, "V1bR": {"target": "T2, V1bR (Homo sapiens, UniProt P47901)", "T2 sequence (P47901 1-424)": "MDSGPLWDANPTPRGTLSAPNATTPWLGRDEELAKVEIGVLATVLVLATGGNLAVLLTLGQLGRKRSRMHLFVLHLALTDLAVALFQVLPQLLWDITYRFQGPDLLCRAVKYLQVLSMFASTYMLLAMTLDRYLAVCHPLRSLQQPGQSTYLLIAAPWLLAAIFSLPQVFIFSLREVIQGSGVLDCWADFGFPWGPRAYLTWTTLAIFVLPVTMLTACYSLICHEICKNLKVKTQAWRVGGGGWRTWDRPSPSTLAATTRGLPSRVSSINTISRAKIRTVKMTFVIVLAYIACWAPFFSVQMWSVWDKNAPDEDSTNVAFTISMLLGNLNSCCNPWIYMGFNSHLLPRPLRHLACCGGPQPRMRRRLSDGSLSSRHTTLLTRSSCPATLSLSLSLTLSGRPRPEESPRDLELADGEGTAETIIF", "experiment": "3H-AVP competition binding on V1bR membranes", "settings": "toxin at 1 μM", "protocol": "Membranes from cells expressing vasopressin receptors were purchased from […] (Courtaboeuf, France). Binding experiments were performed with ^3H-AVP ([…], Courtaboeuf, France) in 96-well plates. Reaction mixtures contained 50 mM Tris-HCl, pH 7.4, 10 mM MgCl2 and 1 g/L BSA in a final volume of 100 μL. Plates were incubated for 3 h at room temperature. Binding reactions were stopped by filtration through a GF/C filter pre-soaked in 0.5% polyethyleneimine on a cell harvester ([…], Courtaboeuf, France) and plates were dried. Ultimagold O (25 μl; […]) was added to each well and samples were counted using a TopCount counter ([…], Courtaboeuf, France) (Counting yield of 55%). […] A one-site inhibition mass action curve was fitted to inhibition binding data using Kaleidagraph (SYNERGY SOFTWARE, Reading, Pa., USA). IC50 values were converted to Ki for competition experiments using the Cheng-Prusoff equation (Cheng et al., Biochem. Pharmacol., 1973, 22, 3099-3108)."}, "157 GPCRs": {"test_system": "157 GPCRs", "experiment": "FLIPR agonist/antagonist profiling on 157 GPCRs", "format": "cell-based", "settings": "1 μM U-Da2a", "protocol": "Percentage activation and percentage inhibition values were determined on each GPCR. […] Percentage inhibition values were determined upon addition of a reference agonist at an estimated EC80 concentration. All wells were prepared using EMD Millipore's GPCRProfiler® Assay Buffer. The GPCRProfiler® Assay Buffer was a modified Hanks Balanced Salt Solution (HBSS) where HBSS was supplemented to contain 20 mM HEPES and 2.5 mM Probenecid at pH7.4. […] The agonist assay was a total of 180 seconds and was used to assess each compound's ability to activate each GPCR assayed. […] The antagonist assay was conducted using the same assay plate and the same apparatus that was used for the agonist assay. All assay plate data were subjected to appropriate baseline corrections. After baseline corrections were applied, maximum fluorescence values were exported and data processed to calculate percentage activation (relative to Emax reference agonist and vehicle control values), percentage inhibition (relative to EC80 and vehicle control values), and additional statistical values (i.e. Z′, percentage variation between replicate data values) to assess the quality of each plate. Where assay plate data were rejected, additional experiments were conducted."}}}
{"smiles": "CC[C@H](C)[C@@H]1NC(=O)[C@H]([C@@H](C)O)NC(=O)[C@H](CO)NC(=O)[C@H](Cc2ccccc2)NC(=O)[C@H](CCCNC(=N)N)NC(=O)[C@H](CC(N)=O)NC(=O)[C@H](C)NC(=O)[C@H](CC(N)=O)NC(=O)CNC(=O)[C@H](CCCCN)NC(=O)[C@@H]2CSSC[C@@H]3NC(=O)[C@@H]4CCCN4C(=O)CNC(=O)[C@@H]4CCCN4C(=O)[C@H](CCCCN)NC(=O)[C@H](C(C)C)NC(=O)[C@@H]4CCCN4C(=O)[C@H](CC(C)C)NC(=O)[C@H](CC(N)=O)NC(=O)[C@@H](NC(=O)[C@H](Cc4ccccc4)NC(=O)[C@H](CO)NC(=O)[C@@H]4CCCN4C(=O)[C@@H](N)CCCNC(=N)N)CSSC[C@@H](C(=O)N[C@H](C(=O)NCC(=O)O)C(C)C)NC(=O)[C@H]([C@@H](C)O)NC(=O)[C@H](CCCNC(=N)N)NC(=O)[C@H](CCCNC(=N)N)NC(=O)[C@H](CSSC[C@H](NC(=O)[C@H](CCCCN)NC(=O)[C@H](CC(N)=O)NC(=O)[C@H]([C@@H](C)O)NC(=O)[C@H](CCCCN)NC(=O)[C@H](CCC(N)=O)NC(=O)[C@H](CO)NC(=O)[C@H](Cc4ccc(O)cc4)NC(=O)[C@H](Cc4ccc(O)cc4)NC(=O)[C@H](Cc4ccccc4)NC(=O)[C@H](C)NC(=O)[C@H](CO)NC(=O)[C@H](Cc4ccccc4)NC(=O)[C@H](Cc4ccccc4)NC(=O)CNC(=O)[C@H](CC(N)=O)NC3=O)C(=O)N[C@@H](Cc3c[nH]cn3)C(=O)N[C@@H](CO)C(=O)N[C@@H](Cc3ccccc3)C(=O)N[C@@H]([C@@H](C)O)C(=O)N[C@@H](Cc3ccc(O)cc3)C(=O)NCC(=O)NCC(=O)N2)NC(=O)[C@H](CCCCN)NC(=O)[C@H](CCC(=O)O)NC1=O", "note": "[U-Da2a]", "values": [{"measurement": "kidney weight", "setting": "CD1^pcy/pcy mice", "value": "reduces kidney weight"}, {"measurement": "number of cysts", "setting": "CD1^pcy/pcy mice; histology", "value": "significantly reduces the number of cysts"}, {"measurement": "Kb", "setting": "hV2-Rluc receptor", "value": 100, "unit": "nM"}, {"measurement": "inhibition of 3H-AVP binding to V1bR", "setting": "V1bR", "value": "did not inhibit"}, {"measurement": "agonist and antagonist activity on 157 GPCRs", "setting": "157 GPCRs", "value": "detected only on V2R"}]}
